Experimental data from patent publication US20200325518A1, “Systems and Methods for Metabolic Assessment Utilizing 1-Methoxy-PMS Field” (priority 2019, published 2020).

System: Bacteria
Experiment: BacTiter-Glo luminescence after incubation of bacteria with or without resazurin
Format: cell-based
Settings: bacteria incubated 4 hours at 35° C. in presence of resazurin versus added after incubation
Procedure: Bacteria were inoculated into 96-well microplates comprise cation-adjusted Mueller Hinton broth in the presence and absence of resazurin (alamarBlue™) and incubated at 35° C. for 4 hours. For wells that were not incubated with resazurin, the growth indicator was added immediately after the 4-hour incubation. BacTiter-Glo® reagent (Promega, Madison, Wis.) was added to all wells and luminescence was measured. […] Thus, it can be advantageous to remove growth indicator from test wells during incubation.

O=c1ccc2[n+]([O-])c3ccc(O)cc3oc-2c1 [resazurin, 7-hydroxy-10-oxidophenoxazin-10-ium-3-one]
luminescent signal upon addition of BacTiter-Glo (viable bacteria): less luminescent signal
